From the NIST ThermoML archive (doi:10.1021/je034087q)

Assay: xn = mol fraction of the nth substance listed
Settings: Fluid (supercritical or subcritical phases), x2 = 0.901

CCCCC [pentane] + O=C=O
mass density [kg/m3]
Settings | 326.15 K | 328.15 K
8540 kPa | 461 | –
8560 kPa | 465 | –
8580 kPa | 469 | –
8610 kPa | 472 | –
8630 kPa | 476 | –
8650 kPa | – | 431
8670 kPa | 481 | –
8690 kPa | – | 436
8700 kPa | 486 | –
8720 kPa | – | 442
8740 kPa | 491 | –
8760 kPa | – | 448
8780 kPa | 496 | –
8830 kPa | – | 459
8840 kPa | 503 | –
8870 kPa | 509 | –
8880 kPa | – | 465
8920 kPa | 516 | –
8930 kPa | – | 473
8970 kPa | 520 | 475
9010 kPa | 524 | –
9030 kPa | – | 483
9080 kPa | 531 | –
9100 kPa | – | 491
9160 kPa | 538 | 499
9220 kPa | 544 | –
9230 kPa | – | 507
9320 kPa | – | 517
9350 kPa | 551 | –
9410 kPa | – | 524
9420 kPa | 558 | –
9500 kPa | 562 | –
9530 kPa | – | 533
9560 kPa | 567 | –
9630 kPa | – | 542
9680 kPa | 573 | –
9760 kPa | 579 | 552
9870 kPa | 583 | –
9930 kPa | – | 562
9990 kPa | 590 | –
10030 kPa | – | 568
10130 kPa | 595 | 572
10230 kPa | – | 579
10250 kPa | 601 | –
10350 kPa | – | 584
10380 kPa | – | 586
10410 kPa | 608 | –
10490 kPa | – | 590
10580 kPa | – | 594
10720 kPa | 618 | –
10750 kPa | – | 601
10880 kPa | – | 606
10920 kPa | 625 | –
11060 kPa | – | 612
11140 kPa | – | 614
11150 kPa | 631 | –
11380 kPa | 638 | –
11500 kPa | – | 625
11660 kPa | 645 | –
11670 kPa | – | 629
11800 kPa | – | 634
11950 kPa | 652 | –
11970 kPa | – | 639
12180 kPa | – | 642
12280 kPa | 658 | –
12340 kPa | – | 646
12560 kPa | – | 652
12630 kPa | 666 | –
12760 kPa | – | 655
13020 kPa | – | 661
13030 kPa | 673 | –
13280 kPa | – | 665
13480 kPa | 680 | –
13560 kPa | – | 669
13790 kPa | – | 674
13950 kPa | 686 | –
14260 kPa | – | 682
14540 kPa | 696 | –
14800 kPa | 700 | –
14810 kPa | – | 691
